The record followed here is patent US20210040452A1, “HEMATOPOIETIC CELLS AND METHODS OF USING AND GENERATING THE SAME” (The Regents of the University of California, priority 2015, published 2021).

One test deals with mouse embryos at E12.5. Put plainly: Mitotic arrest by nocodazole injection into mouse embryos. It is filed as in vivo. To be noted: E12.5, 2 hrs prior to sacrifice.
The next test concerns murine HSPCs. As to the kind of experiment: Addition of Tgfβ1 to newly formed murine HSPCs. It is filed as cell-based. To be noted: preliminary mouse studies.
Test [1] deals with wild type E11 whole AGM explants. As to the kind of experiment: AGM explant culture with DAPT, HE ratio by FACS. The test is classed as cell-based, mouse. The source says:
Currently it is not possible to predict which specific endothelial cell within a hemogenic vascular bed will transition to a hematopoietic fate. Also not known is whether endothelial cells comprising the same hemogenic site are all capable of EHT. So whether the actual cell fate conversion is a stochastic event or a predetermined fate change remains to be seen. To circumvent the current obstacles of EHT prediction, we adopted a fate tracing strategy^48 that allows measurement of traced hematopoietic cell populations from labeled endothelial precursors within a specific hemogenic vascular site. By inducing endothelial recombination of Sox17 in AGM explants using the Cdh5(PAC)-CreERT2/RTom/Sox17flox transgenic mouse line, the number of EHT derived hematopoietic cells can be quantified through fate mapping (FIG. 13c, and FIG. 25C). Tamoxifen induction in vitro with the active metabolite 4-hydroxytamoxifen (4-OHT) at E11.0 allows immediate ablation in AGM explants during EHT, and the calculation of a HE ratio which we define as traced hematopoietic cells (HCs) compared to traced endothelial cells (ECs). […] The observed increase in HE ratios and HSPC number is not due to proliferation effects (as measured by BrdU incorporation, FIG. 25D), nor is the higher HE ratio due to changes in cell death (Annexin-V staining, supplementary FIG. 25D). We also observe increases in maturing hematopoietic populations (CD31−CD117+Sca1+Td+), FIG. 25E. In addition, when a similar strategy is applied to earlier explants (E9.5) prior to hematopoietic cell cluster emergence, we observe similar trends in the HE ratio (FIG. 25F). […] To further evaluate the role of Sox17 in this process, we undertook gain-of-function studies in wildtype AGM explants using adenoviral-mediated overexpression of human Sox17 (AdhSox17-GFP), FIG. 13g. GFP expression in explants overlapped with SOX17 co-staining (FIG. 13h), allowing for cell sorting of AGM endothelial cells (CD31+) that were either successfully infected (GFP+) or not infected (GFP−) by AdhSox17-GFP, FIG. 13i. […] We also show the known positive regulation of Notch1 by Sox17, and regulation of other SoxF family members, Sox7 and Sox18.
Whole embryos or AGMs were dissociated as described67 and stained for 30 min at 4° C. with agitation. Single cell suspensions were sorted in a BD FACS Aria III. Flow cytometric analyses were performed on a FACS Verse or FACS Aria III with FACSDiva 8.0 software (BD Biosciences) and data analyzed using FlowJo v10.0.7 (Tree Star). Gating strategy in FIG. 25C, see Table 7 for a list of antibodies.
AGMs from Cdh5(PAC)-CreERT2/R26RTd/Sox17 and Notch1 floxed embryos were dissected and cultured for 24 hrs in 4-hydroxytamoxifen 4-OHT (Sigma H7904) as previously described48, at E11 (and E9.5 for Sox17 mutants). In vivo induction was achieved by intraperitoneal injection of 0.8 mg of tamoxifen of pregnant dams at E9.5. Tamoxifen (MP Biomedical, 156738) prepared as previously described48. DAPT γ-secretase inhibitor (Sigma, D5942) was prepared in DMSO and added directly to explant culture medium at final concentrations of 25 μM, 50 μM, 100 μM, or 200 μM. For overexpression studies, AGMs were incubated with 8×10^7 adenoviral particles per milliliter at 37 C with agitation for 1 hr prior to explant culture48. Adeno-CMV-hSox17-GFP (AdhSox17-GFP) was produced by Vector Biolabs (ADV-224019, Ref Seq: BC140307).

Regarding `COC(=O)Nc1nc2ccc(C(=O)c3cccs3)cc2[nH]1` [nocodazole], in the test with mouse embryos at E12.5, the “mitotic arrest in the endothelium” value is given as “not arrested in mitosis” and the “mitotic arrest in the myocardium” value is on record as “multiple cell division arrests”.

Consider Tgfβ1: transforming growth factor β1, for which the “maturation of HSPCs” value in the test on murine HSPCs is “may accelerate their maturation”.

Take `C[C@H](NC(=O)Cc1cc(F)cc(F)c1)C(=O)N[C@H](C(=O)OC(C)(C)C)c1ccccc1` [DAPT]: the “HE ratios after AGM explants were exposed” value in test [1] was “increased HE ratios”. In test [1] (50-100 μM DAPT, 24 hours, control DMSO), the “HE ratio in comparison to control” value was “significant increase”. Besides, the “Wildtype HE ratio (DAPT), Mean” value in test [1] (WT + 25 μM, 24 hours) worked out at 0.9771; in test [1] (WT + 50 μM, 24 hours), 0.9702; in test [1] (WT + 100 μM, 24 hours) it was 0.9649; in test [1] (WT + 200 μM, 24 hours), 0.8264.
